Like-named read-outs stand apart in the source and are kept apart here.
Tests used:
[1] = Stability of metal-DOTAM in blood (spontaneous Ca-DOTAM formation); format: in vitro ADME, mouse
Source text: (§1) The initial choice for quenching was Cu, thus replacing unchelated DOTAM with quenched, non-competing Cu-DOTAM, and a large number of studies within the CEA-PRIT program were executed using this condition. However, it was later discovered that the Cu-DOTAM complex was, in fact, not stable in vivo, and a study was undertaken to assess its stability compared with alternative quenching ions in human and mouse serum, plasma, and blood.

[2] = as above; format: in vitro ADME, human
Source text: as §1

| SMILES | spontaneous Ca-DOTAM formation [1] | spontaneous Ca-DOTAM formation [2] [%] | spontaneous Ca-DOTAM formation ([1]; mouse blood, 35 minutes p.i.) [%] | spontaneous Ca-DOTAM formation ([2]; human blood, 35 minutes p.i.) [%] |
| --- | --- | --- | --- | --- |
| NC(=O)CN1CCN(CC(N)=O)CCN(CC(N)=O)CCN(CC(N)=O)CC1.[Cu+2] [Cu-DOTAM] | approximately 25% | ~30 | – | – |
| NC(=O)CN1CCN(CC(N)=O)CCN(CC(N)=O)CCN(CC(N)=O)CC1.[Zn+2] [Zn-DOTAM] | 0% | 0 | – | – |
| NC(=O)CN1CCN(CC(N)=O)CCN(CC(N)=O)CCN(CC(N)=O)CC1.[Pb+2] [Pb-DOTAM] | – | – | 4 | 4 |

— patent publication US20220031871A1, “ANTIBODIES FOR CHELATED RADIONUCLIDES AND CLEARING AGENTS” (Hoffmann-La Roche Inc., priority 2018, published 2022)
